Assay results published in patent publication US10160771B2, “Hepatitis C virus inhibitors and uses thereof in preparation of drugs” (priority 2014, dated 2018).
pEC50: −log10 of the molar value.

Legend:
[1] = tested on: HCV genotype 1a (HCV-1a) replicon cells; experiment: HCV genotype 1a replicon luciferase assay (EC50); type: cell-based, hepatitis C virus genotype 1a (H77 clone); settings: Hepatitis C virus, 72 h, 3 days, luciferase (Bright-Glo)
Outline: (§1)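 Replicon cells, 8000/well, 3 d, 37 °C; 6-pt 5-fold dilution from 100, 10 or 1 nM, 0.5% DMSO, duplicates; Bright-Glo luminescence → EC50 (nonlinear fit). 1a = H77 K1691R/K2040R/S2204I; 1b = Con1 E1202G/T1280I/K1846T.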

[2] = tested on: HCV genotype 1b (HCV-1b) replicon cells; experiment: HCV genotype 1b replicon luciferase assay (EC50); type: cell-based, hepatitis C virus genotype 1b (Con1 clone); settings: Hepatitis C virus, 72 h, 3 days, luciferase (Bright-Glo)
Outline: as §1

[3] = Cell Titer-fluor cell activity assay in HCV-1b replicon cells (CC50); type: cell-based
Outline: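 CC50 derived by nonlinear fitting of inhibition % from Cell Titer-fluor signal (405/515 nm, 30 min). Cells: genotype 1b Con1 replicon carrying E1202G, T1280I, K1846T, seeded 8000/well with compound for 3 days, 37 °C, 0.5% DMSO; 6 points, 5-fold dilution, top 100, 10 or 1 nM, duplicates.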

Structure (SMILES) | pEC50 [1] | pEC50 [2] | CC50 at 3 days [3]
COC(=O)N[C@H](C(=O)N1CCC[C@H]1c1ncc(-c2ccc(-c3ccc(-c4[nH]c([C@@H]5CCCN5C(=O)[C@@H](NC(=O)OC)[C@@H](C)OC)c5c4COC5)cc3)cc2)[nH]1)C(C)C [AG_079_A] | 10.00 to 12.00 | 10.00 to 12.00 | > 5 nM
COC(=O)N[C@H](C(=O)N1CCC[C@H]1c1ncc(-c2ccc(-c3ccc(-c4[nH]c([C@H]5CCCN5C(=O)[C@@H](NC(=O)OC)C(C)OC)c5c4COC5)cc3)cc2)[nH]1)C(C)C (stereo partly drawn) [AG_079_B] | 8.00 to 9.00 | 9.00 to 10.00 | > 5 nM
COC(=O)N[C@H](C(=O)N1CCC[C@@H]1c1[nH]c(-c2ccc(-c3ccc(-c4cnc([C@@H]5CCCN5C(=O)[C@@H](NC(=O)OC)[C@@H](C)OC)[nH]4)cc3)cc2)c2c1COC2)C(C)OC (stereo partly drawn) [AG_080_B] | 8.00 to 9.00 | 9.00 to 10.00 | > 5 nM
COC(=O)N[C@H](C(=O)N1CCC[C@H]1c1ncc(-c2ccc(-c3ccc(-c4ccc([C@@H]5CCCN5C(=O)N(NC(=O)OC)C(C)C)[nH]4)cc3)cc2)[nH]1)C(C)C [AG_081_A] | 7.00 to 8.00 | 9.00 to 10.00 | > 5 nM
COC(=O)N[C@H](C(=O)N1CCC[C@H]1c1ncc(-c2ccc(-c3ccc(-c4ccc([C@H]5CCCN5C(=O)N(NC(=O)OC)C(C)C)[nH]4)cc3)cc2)[nH]1)C(C)C [AG_081_B] | 7.00 to 8.00 | 10.00 to 12.00 | > 1 nM
COC(=O)N[C@H](C(=O)N1CCC[C@H]1c1ncc(-c2ccc(-c3ccc(-c4[nH]c(C5CCCN5C(=O)[C@@H]5COC(=O)N5)c5c4CCC5)cc3)cc2)[nH]1)C(C)C (stereo partly drawn) [AG_084_A] | 8.00 to 9.00 | 9.00 to 10.00 | > 1 nM
COC(=O)NC(C(=O)N1CCCC1c1ccc(-c2ccc3c(c2)C(C)(C)c2cc(-c4cnc([C@@H]5CCCN5C(=O)[C@@H](NC(=O)OC)C(C)C)[nH]4)ccc2-3)[nH]1)[C@@H](C)OC (stereo partly drawn) [AG_085] | 7.00 to 8.00 | 10.00 to 12.00 | > 1 nM
COC(=O)N[C@H](C(=O)N1CCC[C@H]1c1[nH]c(-c2ccc(-c3ccc(-c4cnc([C@@H]5CCCN5C(=O)[C@@H](NC(=O)OC)C5CC5)[nH]4)cc3)cc2)c2c1CCC2)C(C)C [AG_086] | 7.00 to 8.00 | 10.00 to 12.00 | > 1 nM
COC(=O)N[C@H](C(=O)N1CCCC1c1cc(Cl)c(-c2ccc(-c3ccc(-c4cnc([C@@H]5CCCN5C(=O)[C@@H](NC(=O)OC)C(C)C)[nH]4)cc3)cc2)[nH]1)C(C)C (stereo partly drawn) [AG_087] | 9.00 to 10.00 | 10.00 to 12.00 | > 1 nM
COC(=O)N[C@H](C(=O)N1CCC[C@H]1c1[nH]c(-c2ccc(-c3ccc(-c4[nH]c([C@@H]5CCCN5C(=O)[C@@H](NC(=O)OC)[C@@H](C)OC)c5c4COC5)cc3)cc2)c2c1COC2)[C@@H](C)OC [AG_088_A] | 9.00 to 10.00 | 10.00 to 12.00 | > 1 nM
COC(=O)N[C@H](C(=O)N1CCC[C@H]1c1[nH]c(-c2ccc(-c3ccc(-c4cnc([C@@H]5CCCN5C(=O)[C@@H](NC(=O)OC)[C@@H](C)O)[nH]4)cc3)cc2)c2c1CCC2)C(C)C [AG_090] | 8.00 to 9.00 | 10.00 to 12.00 | > 1 nM
COC[C@H](NC(=O)OC)C(=O)N1CCC[C@H]1c1ncc(-c2ccc(-c3ccc(-c4[nH]c([C@@H]5CCCN5C(=O)[C@@H](NC(=O)OC)C(C)C)c5c4CCC5)cc3)cc2)[nH]1 [AG_091] | 8.00 to 9.00 | 10.00 to 12.00 | > 1 nM
COC(=O)NC(C(=O)N1CCC[C@H]1c1nc2ccc(-c3ccc(-c4[nH]c([C@@H]5CCCN5C(=O)[C@@H](NC(=O)OC)C(C)OC)c5c4CCC5)cc3)cc2[nH]1)[C@@H](C)OC (stereo partly drawn) [AG_092] | 7.00 to 8.00 | 10.00 to 12.00 | > 1 nM
COC(=O)N[C@H](C(=O)N1CCC[C@H]1c1[nH]c(-c2ccc(-c3ccc(-c4cnc([C@@H]5CCCN5C(=O)[C@@H](NC(=O)OC)C(C)(C)C)[nH]4)cc3)cc2)c2c1CCC2)C(C)C [AG_093] | 7.00 to 8.00 | 10.00 to 12.00 | > 1 nM
COC(=O)N[C@H](C(=O)N1CCC[C@H]1c1ncc(-c2ccc(-c3ccc(-c4cc(Cl)c([C@@H]5CCCN5C(=O)[C@@H](NC(=O)OC)[C@@H](C)OC)[nH]4)cc3)cc2)[nH]1)[C@@H](C)OC [AG_094] | 9.00 to 10.00 | 10.00 to 12.00 | > 1 nM
COC[C@H](NC(=O)OC)C(=O)N1CCC[C@H]1c1ncc(-c2ccc(-c3ccc(-c4ccc([C@@H]5CCCN5C(=O)[C@@H](NC(=O)OC)C(C)C)[nH]4)cc3)cc2)[nH]1 [AG_100] | 9.00 to 10.00 | 10.00 to 12.00 | > 1 nM
COC(=O)N[C@H](C(=O)N1CCC[C@H]1c1ccc(-c2ccc(-c3ccc(-c4cnc([C@@H]5CCCN5C(=O)[C@@H](NC(=O)OC)C5CCCCC5)[nH]4)cc3)cc2)[nH]1)C(C)C [AG_101] | 8.00 to 9.00 | 10.00 to 12.00 | > 1 nM

Structure (SMILES) | pEC50 [1] | pEC50 [2] | CC50 at 3 days [3]
COC(=O)N[C@H](C(=O)N1CCC[C@H]1c1ccc(-c2ccc(-c3ccc(-c4cnc([C@@H](NC(=O)[C@@H](NC(=O)OC)[C@@H](C)OC)C(C)C)[nH]4)cc3)cc2)[nH]1)C(C)C [AG_102] | 8.00 to 9.00 | 10.00 to 12.00 | > 1 nM
COC(=O)N[C@H](C(=O)N1CCCC1c1ncc(-c2ccc3c(c2)oc2cc(-c4ccc([C@@H]5CCCN5C(=O)[C@@H](NC(=O)OC)[C@@H](C)OC)[nH]4)ccc23)[nH]1)[C@@H](C)OC (stereo partly drawn) [AG_103] | 8.00 to 9.00 | 10.00 to 12.00 | > 1 nM
COC(=O)N[C@H](C(=O)N1CCC[C@H]1c1[nH]c(-c2ccc(-c3ccc(-c4cnc([C@@H]5CCCN5C(=O)[C@@H](NC(=O)OC)[C@@H](C)O)[nH]4)cc3)cc2)c2c1COC2)C(C)C [AG_104] | 10.00 to 12.00 | 10.00 to 12.00 | > 1 nM
COC(=O)N[C@H](C(=O)N1CCC[C@H]1c1ncc(-c2ccc(-c3ccc(-c4[nH]c([C@@H]5CCCN5C(=O)[C@@H](NC(=O)OC)[C@@H](C)OC)c5c4COC5)cc3)cc2)[nH]1)[C@@H](C)O [AG_105] | 9.00 to 10.00 | 10.00 to 12.00 | > 1 nM
COC(=O)N[C@H](C(=O)NC1(c2ncc(-c3ccc(-c4ccc(-c5ccc([C@@H]6CCCN6C(=O)[C@@H](NC(=O)OC)[C@@H](C)OC)[nH]5)cc4)cc3)[nH]2)CC1)[C@@H](C)OC [AG_106] | 7.00 to 8.00 | 10.00 to 12.00 | > 1 nM
CC[C@H](C)[C@H](NC(=O)OC)C(=O)N1CCC[C@H]1c1ncc(-c2ccc(-c3ccc(-c4ccc([C@@H]5CCCN5C(=O)[C@@H](NC(=O)OC)C(C)C)[nH]4)cc3)cc2)[nH]1 [AG_107] | 8.00 to 9.00 | 10.00 to 12.00 | > 1 nM
COC[C@H](NC(=O)OC)C(=O)N1CCC[C@H]1c1ccc(-c2ccc(-c3ccc(-c4cnc([C@@H]5CCCN5C(=O)[C@@H](NC(=O)OC)[C@@H](C)O)[nH]4)cc3)cc2)[nH]1 [AG_108] | 9.00 to 10.00 | 10.00 to 12.00 | > 1 nM
COC[C@H](NC(=O)OC)C(=O)N1CCC[C@H]1c1ccc(-c2ccc(-c3ccc(-c4cnc([C@@H]5CCCN5C(=O)[C@H](COC)NC(=O)OC)[nH]4)cc3)cc2)[nH]1 [AG_109] | 9.00 to 10.00 | 10.00 to 12.00 | > 1 nM
COC(=O)N[C@H](C(=O)N1CCC[C@H]1c1ccc(-c2ccc(-c3ccc(-c4cnc([C@@H]5CC6(CCCC6)CN5C(=O)[C@@H](NC(=O)OC)[C@@H](C)OC)[nH]4)cc3)cc2)[nH]1)[C@@H](C)OC [AG_110] | 9.00 to 10.00 | 10.00 to 12.00 | > 1 nM
COC(=O)N[C@H](C(=O)N1CC2(CCCC2)C[C@H]1c1ncc(-c2ccc(-c3ccc(-c4[nH]c([C@@H]5CCCN5C(=O)[C@@H](NC(=O)OC)[C@@H](C)OC)c5c4COC5)cc3)cc2)[nH]1)[C@@H](C)OC [AG_111] | 9.00 to 10.00 | 10.00 to 12.00 | > 1 nM
COC(=O)N[C@H](C(=O)N1CCC[C@H]1c1ccc(-c2ccc(-c3ccc(-c4cnc([C@H](C)NC(=O)[C@@H](NC(=O)OC)[C@@H](C)OC)[nH]4)cc3)cc2)[nH]1)C(C)OC (stereo partly drawn) [AG_112] | 8.00 to 9.00 | 10.00 to 12.00 | > 1 nM
COC[C@H](NC(=O)OC)C(=O)N1CCC[C@H]1c1ncc(-c2ccc(-c3ccc(-c4[nH]c([C@@H]5CCCN5C(=O)[C@@H](NC(=O)OC)C(C)OC)c5c4COC5)cc3)cc2)[nH]1 (stereo partly drawn) [AG_113] | 9.00 to 10.00 | 10.00 to 12.00 | > 1 nM
COC(=O)N[C@H](C(=O)N1CCC[C@@H]1c1[nH]c(-c2ccc(-c3ccc(-c4cnc([C@@H]5CCCN5C(=O)[C@@H](NC(=O)OC)C(C)C)[nH]4)cc3)cc2)c2c1CCCO2)C(C)C [AG_114_B] | 7.00 to 8.00 | 9.00 to 10.00 | > 1 nM
COC(=O)N[C@H](C(=O)N1CCC[C@H]1c1ccc(-c2ccc(-c3ccc(-c4cnc([C@@H]5CC6(CC6)CN5C(=O)[C@@H](NC(=O)OC)[C@@H](C)OC)[nH]4)cc3)cc2)[nH]1)[C@@H](C)OC [AG_115] | 9.00 to 10.00 | 10.00 to 12.00 | > 1 nM
COC(=O)N[C@H](C(=O)N1CC2(CC2)C[C@H]1c1ncc(-c2ccc(-c3ccc(-c4[nH]c([C@@H]5CCCN5C(=O)[C@@H](NC(=O)OC)[C@@H](C)OC)c5c4COC5)cc3)cc2)[nH]1)[C@@H](C)OC [AG_116] | 10.00 to 12.00 | 10.00 to 12.00 | > 1 nM
COC(=O)N[C@H](C(=O)N1CC2(CC2)C[C@H]1c1ncc(-c2ccc(-c3ccc(-c4[nH]c([C@@H]5CCCN5C(=O)[C@@H](NC(=O)OC)[C@@H](C)OC)c5c4COC5)cc3)cc2)[nH]1)C(C)C [AG_117] | 9.00 to 10.00 | 10.00 to 12.00 | > 1 nM
